Measurements taken from the NIST ThermoML archive (doi:10.1021/je4009238).
± gives the expanded uncertainty stated by the source.

Experiments:
[1] = refractive index (Na D-line) (dimensionless); xn = mol fraction of the nth substance listed; conditions: 101 kPa, Liquid
[2] = xn = mol fraction of the nth substance listed; conditions: 288.15 K, 101 kPa, Liquid

CCn1cc[n+](C)c1.[Cl-] [1-ethyl-3-methylimidazolium chloride] + CN(C)C=O
refractive index, [1]
Conditions | 288.15 K | 298.15 K | 308.15 K | 318.15 K
x1 = 0.0102 | 1.43565 ± 0.00063 | 1.43106 ± 0.00063 | 1.42654 ± 0.00063 | 1.42218 ± 0.00063
x1 = 0.0203 | 1.43836 ± 0.00063 | 1.43346 ± 0.00063 | 1.42888 ± 0.00063 | 1.4245 ± 0.00063
x1 = 0.031 | 1.44091 ± 0.00063 | 1.4364 ± 0.00063 | 1.43189 ± 0.00063 | 1.4275 ± 0.00063
x1 = 0.0417 | 1.44354 ± 0.00063 | 1.43872 ± 0.00063 | 1.43416 ± 0.00063 | 1.42977 ± 0.00063
x1 = 0.0524 | 1.44588 ± 0.00063 | 1.44144 ± 0.00063 | 1.43691 ± 0.00063 | 1.43252 ± 0.00063
x1 = 0.0635 | 1.44822 ± 0.00063 | 1.44361 ± 0.00063 | 1.43896 ± 0.00063 | 1.43477 ± 0.00063
x1 = 0.0752 | 1.45067 ± 0.00063 | 1.44626 ± 0.00063 | 1.4419 ± 0.00063 | 1.43765 ± 0.00063
x1 = 0.0867 | 1.45308 ± 0.00063 | 1.44855 ± 0.00063 | 1.44372 ± 0.00063 | 1.43964 ± 0.00063
x1 = 0.0988 | 1.45542 ± 0.00063 | 1.4511 ± 0.00063 | 1.44678 ± 0.00063 | 1.44253 ± 0.00063
x1 = 0.1107 | 1.45784 ± 0.00063 | 1.45354 ± 0.00063 | 1.44907 ± 0.00063 | 1.445 ± 0.00063
x1 = 0.1232 | 1.46021 ± 0.00063 | 1.45597 ± 0.00063 | 1.45167 ± 0.00063 | 1.44746 ± 0.00063
x1 = 0.1361 | 1.46253 ± 0.00063 | 1.45827 ± 0.00063 | 1.45406 ± 0.00063 | 1.44986 ± 0.00063
x1 = 0.1489 | 1.46477 ± 0.00063 | 1.46065 ± 0.00063 | 1.45621 ± 0.00063 | 1.45192 ± 0.00063
x1 = 0.1626 | 1.46721 ± 0.00063 | 1.46302 ± 0.00063 | 1.45888 ± 0.00063 | 1.45477 ± 0.00063
x1 = 0.1759 | 1.46942 ± 0.00063 | 1.46536 ± 0.00063 | 1.46102 ± 0.00063 | 1.45679 ± 0.00063

[2]
Conditions | mass density [kg/m3] | viscosity [mPa·s]
x1 = 0.0102 | 958.86 ± 0.81 | 1.023 ± 0.11
x1 = 0.0203 | 963.47 ± 0.78 | 1.156 ± 0.12
x1 = 0.031 | 968.07 ± 0.75 | 1.188 ± 0.12
x1 = 0.0417 | 972.24 ± 0.73 | 1.327 ± 0.13
x1 = 0.0524 | 976.38 ± 0.7 | 1.399 ± 0.13
x1 = 0.0635 | 980.82 ± 0.68 | 1.535 ± 0.14
x1 = 0.0752 | 984.98 ± 0.65 | 1.765 ± 0.15
x1 = 0.0867 | 989.33 ± 0.63 | 1.867 ± 0.16
x1 = 0.0988 | 993.32 ± 0.6 | 2.123 ± 0.17
x1 = 0.1107 | 997.33 ± 0.58 | 2.25 ± 0.18
x1 = 0.1232 | 1001.39 ± 0.57 | 2.429 ± 0.19
x1 = 0.1361 | 1005.6 ± 0.6 | 2.766 ± 0.21
x1 = 0.1489 | 1009.6 ± 0.63 | 3.002 ± 0.23
x1 = 0.1626 | 1013.74 ± 0.65 | 3.293 ± 0.24
x1 = 0.1759 | 1017.7 ± 0.68 | 3.645 ± 0.27
